The text below walks through data of patent US12134788B2, “Engineered prephenate dehydrogenases and arogenate dehydrogenases and methods of using the same” (Wisconsin Alumni Research Foundation, priority 2017, dated 2024).

The target of assay [1] is T1, GmPDH1 (Gm18g02650), soybean (Glycine max) prephenate dehydrogenase, wild type (Glycine max, UniProt I1MYY4).
T1 construct: homodimer
T1 sequence (I1MYY4 1-271): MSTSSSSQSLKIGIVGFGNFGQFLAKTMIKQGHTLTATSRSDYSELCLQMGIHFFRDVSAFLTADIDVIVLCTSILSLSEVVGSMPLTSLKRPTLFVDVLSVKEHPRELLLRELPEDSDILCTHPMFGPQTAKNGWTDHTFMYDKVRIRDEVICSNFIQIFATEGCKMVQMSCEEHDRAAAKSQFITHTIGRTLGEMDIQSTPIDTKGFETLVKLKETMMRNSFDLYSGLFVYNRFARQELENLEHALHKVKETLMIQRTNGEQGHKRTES
Kind of assay: ADH and PDH assay: steady-state kinetics and Tyr inhibition, GmPDH1 wild type. In kind it is biochemical. The method, then: (§1) Kinetic parameters of purified recombinant proteins were determined from assays conducted at varying arogenate (19.5 μM-5 mM) and prephenate concentration (23.4 μM-6 mM). Standard assay conditions were 25 mM HEPES pH 7.6, 50 mM KCl and 10% (v/v) ethylene glycol, and 0.5 mM NADP^+ with varied substrate, concentrations. Reactions were initiated by addition of enzyme and incubated at 37° C. monitored every 10-15 seconds at […] using a microplate reader (Tecan Genios). Kinetic parameters were determined by fitting initial velocity data to the Michaelis-Menten equation using the Origin software (OriginLab).
(§2) Arogenate was prepared by enzymatic conversion of prephenate (Sigma-Aldrich) as previously reported^56. For Tyr inhibition assays, Tyr was dissolved in a slightly basic solution (0.025 N NaOH) due to solubility issues, thus the concentration of lysis buffer was increased to 500 mM HEPES final concentration to buffer against the changes by addition of Tyr in the reaction. […]

The target in assay [2] is T2, MtPDH (MtPDH1; Mt3g071980), Medicago truncatula prephenate dehydrogenase, wild type (Medicago truncatula, UniProt A0A0A0R205).
T2 sequence (A0A0A0R205 1-268): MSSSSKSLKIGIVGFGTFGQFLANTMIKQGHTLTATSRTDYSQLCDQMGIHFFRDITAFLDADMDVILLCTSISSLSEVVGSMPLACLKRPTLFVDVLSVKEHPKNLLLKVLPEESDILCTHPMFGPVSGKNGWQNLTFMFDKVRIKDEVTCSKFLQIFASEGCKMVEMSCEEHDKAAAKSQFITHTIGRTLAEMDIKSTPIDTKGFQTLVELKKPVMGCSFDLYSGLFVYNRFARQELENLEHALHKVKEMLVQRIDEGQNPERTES
As to the kind of experiment: ADH and PDH assay: steady-state kinetics and Tyr inhibition, MtPDH wild type. It counts as biochemical. The method, then: as §1, §2

For assay [3], the target named is T3, GmncADH (Gm14g05990), soybean (Glycine max) noncanonical arogenate dehydrogenase, wild type (Glycine max, UniProt I1M7P5).
T3 construct: wild type
T3 sequence (I1M7P5 1-266): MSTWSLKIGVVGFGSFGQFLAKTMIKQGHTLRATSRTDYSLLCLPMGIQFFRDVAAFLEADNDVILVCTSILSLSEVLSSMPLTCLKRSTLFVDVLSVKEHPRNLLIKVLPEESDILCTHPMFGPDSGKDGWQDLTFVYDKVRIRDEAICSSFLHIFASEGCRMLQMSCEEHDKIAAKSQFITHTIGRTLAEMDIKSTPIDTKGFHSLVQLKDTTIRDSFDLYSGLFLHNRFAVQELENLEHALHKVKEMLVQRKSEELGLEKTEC
Kind of assay: ADH and PDH assay: steady-state kinetics and Tyr inhibition, GmncADH wild type. It counts as biochemical. The method, then: as §1
(§3) Arogenate was prepared by enzymatic conversion of prephenate (Sigma-Aldrich) as previously reported^56. For Tyr inhibition assays, Tyr was dissolved in a slightly basic solution (0.025 N NaOH) due to solubility issues, thus the concentration of lysis buffer was increased to 500 mM HEPES final concentration to buffer against the changes by addition of Tyr in the reaction. Reactions containing varying amounts of Tyr (10 μM-8 mM) with 0.5 mM NADP^+ and either 1 mM arogenate or 0.8 mM prephenate were monitored as above.

In assay [4] the target is T4, MtncADH (Mt5g083530), Medicago truncatula noncanonical arogenate dehydrogenase, wild type (Medicago truncatula, UniProt A0A217FAR3).
T4 construct: wild type
T4 sequence (A0A217FAR3 1-266): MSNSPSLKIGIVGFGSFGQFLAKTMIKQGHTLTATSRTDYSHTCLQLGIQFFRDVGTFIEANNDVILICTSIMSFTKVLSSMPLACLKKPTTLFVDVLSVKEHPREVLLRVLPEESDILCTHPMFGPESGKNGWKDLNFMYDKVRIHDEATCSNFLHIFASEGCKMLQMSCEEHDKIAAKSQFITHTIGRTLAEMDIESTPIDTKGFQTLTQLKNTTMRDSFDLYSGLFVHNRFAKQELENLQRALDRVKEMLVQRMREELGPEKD
Kind of assay: ADH and PDH assay: steady-state kinetics and Tyr inhibition, MtncADH wild type. It counts as biochemical. To be noted: for IC50: IC50^Tyr, 0.5 mM NADP^+. The protocol:
as §1, §3

Assay [5] addresses T5, SolyncADH (Slycopersicum06g050630), tomato noncanonical arogenate dehydrogenase, wild type (Solanum lycopersicum, UniProt K4C5K7).
T5 construct: wild type
Kind of assay: ADH and PDH assay: steady-state kinetics and Tyr inhibition, SolyncADH wild type. It counts as biochemical. The protocol:
as §1, §3

Assay [6] has as its target Glycine max GmPDH1 variant M219T (Glycine max, UniProt I1MYY4, M219T). Kind of assay: ADH and PDH assay: steady-state kinetics and Tyr inhibition, GmPDH1 M219T. In kind it is biochemical, Glycine max (soybean). The conditions noted are these: 0-8 mM L-Tyr. The method, then:
as §1, §3

Assay [7] has as its target Glycine max GmPDH1 variant N222A (Glycine max, UniProt I1MYY4, N222A). As to the kind of experiment: ADH and PDH assay: steady-state kinetics and Tyr inhibition, GmPDH1 N222A. In kind it is biochemical, Glycine max (soybean). The conditions noted are these: 0-8 mM L-Tyr. The method, then:
as §1, §3

The target in assay [8] is Glycine max GmPDH1 variant M219T/N222D (Glycine max, UniProt I1MYY4, M219T/N222D). Kind of assay: ADH and PDH assay: steady-state kinetics and Tyr inhibition, GmPDH1 M219T/N222D. To be noted: IC50^Tyr, 0.5 mM NADP^+. It counts as biochemical, Glycine max (soybean). The protocol:
as §1, §3

Assay [9] concerns the target T6, Solanum lycopersicum SolyncADH variant D224N (Solanum lycopersicum, UniProt K4C5K7, D224N).
T6 construct: D224N by site-directed mutagenesis
Kind of assay: ADH and PDH assay: steady-state kinetics and Tyr inhibition, SolyncADH D224N. In kind it is biochemical, Solanum lycopersicum (tomato). The conditions noted are these: versus wild-type; ADH activity, 0-8 mM Tyr. The protocol:
as §1, §3

The target of assay [10] is Arabidopsis thaliana AtADH2 variant D241N, SEQ ID NO: 12 (Arabidopsis thaliana, UniProt Q9LMR3, D275N). Kind of assay: Tyr inhibition of AtADH2 D241N. In kind it is biochemical. The conditions noted are these: versus wild-type; ADH activity, 0-8 mM Tyr. The protocol:
as §1, §3

Assay [11] has as its system AaPDH, A. aeolicus prephenate dehydrogenase. To be noted: cited from earlier work.

Glycine max GmPDH1 variant M219T/N222D, sequence (I1MYY4 1-271 M219T/N222D): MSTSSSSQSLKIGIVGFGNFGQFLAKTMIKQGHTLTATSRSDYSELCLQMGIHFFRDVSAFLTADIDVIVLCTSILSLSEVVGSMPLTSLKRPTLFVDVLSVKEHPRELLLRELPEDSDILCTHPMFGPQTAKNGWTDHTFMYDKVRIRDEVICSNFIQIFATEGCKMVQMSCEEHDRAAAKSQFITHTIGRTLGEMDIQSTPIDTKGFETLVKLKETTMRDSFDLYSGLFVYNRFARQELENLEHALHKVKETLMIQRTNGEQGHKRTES
Arabidopsis thaliana AtADH2 variant D241N, SEQ ID NO: 12, sequence (Q9LMR3 37-358 D275N): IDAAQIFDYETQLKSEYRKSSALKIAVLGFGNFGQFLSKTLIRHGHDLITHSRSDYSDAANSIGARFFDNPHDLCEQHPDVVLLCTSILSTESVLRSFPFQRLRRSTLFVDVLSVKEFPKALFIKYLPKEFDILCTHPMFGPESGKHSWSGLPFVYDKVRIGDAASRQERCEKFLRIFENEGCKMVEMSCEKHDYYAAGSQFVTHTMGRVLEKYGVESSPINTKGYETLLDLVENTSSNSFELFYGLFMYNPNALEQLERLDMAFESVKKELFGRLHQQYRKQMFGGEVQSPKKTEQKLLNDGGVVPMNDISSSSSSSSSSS
T6 sequence (K4C5K7 1-272 D224N): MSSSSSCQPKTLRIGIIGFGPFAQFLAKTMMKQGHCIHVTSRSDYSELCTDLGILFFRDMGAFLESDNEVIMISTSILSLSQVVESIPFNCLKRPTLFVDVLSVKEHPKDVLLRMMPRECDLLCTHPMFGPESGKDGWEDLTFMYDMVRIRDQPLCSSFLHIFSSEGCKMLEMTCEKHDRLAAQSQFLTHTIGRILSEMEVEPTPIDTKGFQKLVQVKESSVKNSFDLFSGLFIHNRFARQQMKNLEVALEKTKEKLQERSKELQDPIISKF
Glycine max GmPDH1 variant N222A, sequence (I1MYY4 1-271 N222A): as the sequence (I1MYY4 1-271 M219T/N222D) above, with T219M, D222A counted along it
Glycine max GmPDH1 variant M219T, sequence (I1MYY4 1-271 M219T): as the sequence (I1MYY4 1-271 M219T/N222D) above, with D222N counted along it
T5 sequence (K4C5K7 1-272): as the sequence (K4C5K7 1-272 D224N) above, with N224D counted along it

The term IC50 denotes the midpoint of a concentration-inhibition curve. Read a high IC50 as weaker potency. On to `N[C@@H](Cc1ccc(O)cc1)C(=O)O` [Tyr, L-Tyrosine], for which the IC50 is 31.3 ± 9.3 mM in assay [1]; 32.1 ± 10 mM in [2]; 15.5 ± 0.8 mM in [3]; 2.2 ± 0.5 mM in assay [4] (substrate arogenate (1 mM)); 0.6 ± 0.1 mM in [4] (substrate prephenate (0.8 mM)); 12.8 mM in assay [5]. Besides, the IC50 in [8] (substrate arogenate (1 mM)) came out at 5.9 ± 0.5 mM; in [8] (substrate prephenate (0.8 mM)) it was 11.1 ± 1.2 mM. The “feedback inhibition by Tyr” value in assay [1] (up to 8 mM Tyr in assays) and in [2] (up to 8 mM Tyr in assays) was “insensitive to feedback inhibition by Tyr” in each case. Moreover, the “IC50 (Tyr), in words” value in [3] (sensitivity to Tyr) and in assay [4] (sensitivity to Tyr) was “in the mM range” in each case. Further, the “inhibition by Tyr” value in assay [6] and in assay [7] was “not inhibited by Tyr” each time. Also, the “sensitivity to Tyr inhibition” value in assay [9] and in [10] was “significantly less sensitive to Tyr inhibition” in each case. The Tyr sensitivity entry in assay [11] was “sensitive to Tyr”.
